Marks after values point to notes of the source that are not given here.
Assays:
Assay type in all cases: physicochemical
[1] = UV-Vis absorption spectra in solvents
Description: (§1) The optical properties of compounds 1 to 3, 6b to 6d, 7a, and 7b were evaluated. Ultraviolet-visible (UV-Vis) absorption and fluorescence spectra were measured with an UV-Vis-NIR spectrophotometer UV-3150 (Shimadzu) and a fluorescence spectrophotometer F-4500 (Hitachi), respectively. Absolute fluorescence quantum yield was determined with an absolute PL quantum yield measurement instruments C9920-02 or C11347-01 (Hamamatsu Photonics). Sample solutions of all the samples were prepared using spectral grade solvents purchased from Nacalai Tesque, and were each measured with a 1 cm square quartz cuvette. The concentrations of each sample for the measurement of UV-Vis absorption spectra were set for ca. 10^−5 M. The concentrations of each sample for the measurement of fluorescence spectra were adjusted in a range where concentration quenching would not occur. For the measurement of absolute fluorescence quantum yield, each sample solution was deaerated by purging with an argon gas stream for several minutes prior to the measurements. The orientation polarizabilities Δf of hexane, ethyl acetate, and methanol, which are not shown in the Tables, were −0.000518, 0.201, and 0.309, respectively.

[2] = Fluorescence spectra in solvents
Description: as §1

[3] = Absolute fluorescence quantum yield in solvents
Description: as §1

[4] = Photobleaching resistance, 403 nm laser irradiation of acetonitrile solutions; conditions: acetonitrile solution, 403 nm laser light, 120 minutes; FIG. 2
Description: Solutions of compounds 1, 2 (6a), 6b, 7a, 7b, and a known fluorescent dye Alexa-430 each in acetonitrile were prepared so that their absorbances are in the range from 0.39 to 0.44. The concentration of each compound in the solution was 2.35×10^−5 M for compound 1, 2.17×10^−5 M for compound 2 (6a), 1.25×10^−5 M for compound 6b, 3.30×10^−5 M for compound 7a, and 2.04×10^−5 M for compound 7b. […] Immediately after preparation of each acetonitrile solution, the molar absorption coefficient of the acetonitrile solution was measured. Then, the molar absorption coefficient of the acetonitrile solution was measured after each of irradiations with 403 nm laser light for 20 minutes, 60 minutes, and 120 minutes, and the relative absorbance was determined relative to the molar absorption coefficient before laser light irradiation (immediately after preparation of the solution).

[5] = cyclohexane, apparatus C11347-01, self-absorption correction
[6] = cyclohexane, apparatus C11347-01
[7] = ethyl acetate, apparatus C11347-01

Compound	Absorption Maximum Wavelength λ max ([1]; CH2Cl2)	Molar Absorption Coefficient ϵ ([1]; CH2Cl2)	Absorption Maximum Wavelength λ max ([1]; CH3CN)	Molar Absorption Coefficient ϵ ([1]; CH3CN)	Absorption Maximum Wavelength λ max ([1]; DMF)	Molar Absorption Coefficient ϵ ([1]; DMF)	Absorption Maximum Wavelength λ max ([1]; EtOH)	Molar Absorption Coefficient ϵ ([1]; EtOH)	Absorption Maximum Wavelength λ max ([1]; benzene)	Molar Absorption Coefficient ϵ ([1]; benzene)	Absorption Maximum Wavelength λ max ([1]; cyclohexane)	Molar Absorption Coefficient ϵ ([1]; cyclohexane)	Emission Maximum Wavelength λ em ([2]; CH2Cl2)	Emission Maximum Wavelength λ em ([2]; CH3CN)	Emission Maximum Wavelength λ em ([2]; DMF)	Emission Maximum Wavelength λ em ([2]; EtOH)	Emission Maximum Wavelength λ em ([2]; cyclohexane)	Fluorescence Quantum Yield φF ([3]; CH3CN, apparatus C11347-01)	Fluorescence Quantum Yield φF ([3]; EtOH, apparatus C11347-01)	Fluorescence Quantum Yield φF [3, 6]	also measured
O=P1(c2ccccc2)C(c2ccc(N(c3ccccc3)c3ccccc3)cc2)=Cc2ccccc21 (stereo not shown) [Compound 2, 2-[4-(N,N-diphenylamino)phenyl]-1-phenylbenzo[b]phosphole-P-oxide]	413 nm	1.75 10^4M^−1 cm^−1	406 nm	1.77 10^4M^−1 cm^−1	409 nm	1.71 10^4M^−1 cm^−1	416 nm	1.78 10^4M^−1 cm^−1	414 nm	1.91 10^4M^−1 cm^−1	410 nm	1.95 10^4M^−1 cm^−1	543 nm	571 nm	564 nm	565 nm	456 nm	0.61	0.57		Emission Maximum Wavelength λ em ([2]; benzene): 497 nm; Fluorescence Quantum Yield φF ([3]; CH2Cl2, apparatus C11347-01): 0.91; Fluorescence Quantum Yield φF ([3]; DMF, apparatus C11347-01): 0.67; Fluorescence Quantum Yield φF ([3]; benzene, apparatus C11347-01): 0.97; Fluorescence Quantum Yield φF [3, 5]: 0.93^b
O=P1(c2ccccc2)C2=C(c3ccccc31)C(c1ccccc1)(c1ccccc1)c1cc(N(c3ccccc3)c3ccccc3)ccc12 (stereo not shown) [Compound 7a]			428 nm	1.62 10^4M^−1 cm^−1			439 nm	1.60 10^4M^−1 cm^−1			424 nm	1.60 10^4M^−1 cm^−1		590 nm		589 nm	482 nm	0.79	0.70	0.88	Absorption Maximum Wavelength λ max ([1]; ethyl acetate): 424 nm; Molar Absorption Coefficient ϵ ([1]; ethyl acetate): 1.61 10^4M^−1 cm^−1; Emission Maximum Wavelength λ em ([2]; ethyl acetate): 540 nm; Fluorescence Quantum Yield φF [3, 7]: 0.90; Resistance to photobleaching (relative absorbance) [4]: outstanding resistance to photobleaching
O=P1(c2ccccc2)C(c2ccc(N(c3ccccc3)c3ccccc3)cc2)=Cc2cc3ccccc3cc21 (stereo not shown) [Compound 6b]	414 nm	3.66 10^4M^−1 cm^−1	405 nm	3.25 10^4M^−1 cm^−1			413 nm	2.67 10^4M^−1 cm^−1			409 nm	4.17 10^4M^−1 cm^−1	533 nm	563 nm		550 nm	450 nm	0.80	0.79	0.90	Fluorescence Quantum Yield φF ([3]; CH2Cl2, apparatus C11347-01): 0.95; Resistance to photobleaching (relative absorbance) [4]: outstanding resistance to photobleaching
O=P1(c2ccccc2)C(c2ccc(N(c3ccccc3)c3ccccc3)cc2)=Cc2ccc3ccccc3c21 (stereo not shown) [Compound 6d]			439 nm	2.07 10^4M^−1 cm^−1			448 nm	1.94 10^4M^−1 cm^−1			440 nm	1.81 10^4M^−1 cm^−1		620 nm		611 nm	495 nm	0.58	0.51	0.92	Absorption Maximum Wavelength λ max ([1]; ethyl acetate): 436 nm; Molar Absorption Coefficient ϵ ([1]; ethyl acetate): 2.02 10^4M^−1 cm^−1; Emission Maximum Wavelength λ em ([2]; ethyl acetate): 564 nm; Fluorescence Quantum Yield φF [3, 7]: 0.90
O=P1(c2ccccc2)C(c2cc3c4c(c2)CCCN4CCC3)=Cc2cc3ccccc3cc21 (stereo not shown) [Compound 6c]			425 nm	2.35 10^4M^−1 cm^−1			429 nm	2.33 10^4M^−1 cm^−1			420 nm	2.38 10^4M^−1 cm^−1		580 nm		583 nm	466 nm	0.71	0.67	0.90	Absorption Maximum Wavelength λ max ([1]; ethyl acetate): 420 nm; Molar Absorption Coefficient ϵ ([1]; ethyl acetate): 2.38 10^4M^−1 cm^−1; Emission Maximum Wavelength λ em ([2]; ethyl acetate): 538 nm; Fluorescence Quantum Yield φF [3, 7]: 0.90
CN(C)c1ccc(C2=Cc3ccccc3P2(=O)c2ccccc2)cc1 (stereo not shown) [Compound 3, 2-[4-(N,N-dimethylamino)phenyl]-1-phenylbenzo[b]phosphole-P-oxide]	412 nm	1.71 10^4M^−1 cm^−1	408 nm	1.73 10^4M^−1 cm^−1	412 nm	1.73 10^4M^−1 cm^−1	415 nm	1.69 10^4M^−1 cm^−1	410 nm	1.89 10^4M^−1 cm^−1	401 nm		532 nm	558 nm	559 nm	565 nm	456 nm	0.89	0.82		Emission Maximum Wavelength λ em ([2]; benzene): 507 nm; Fluorescence Quantum Yield φF ([3]; CH2Cl2, apparatus C11347-01): 0.93; Fluorescence Quantum Yield φF ([3]; DMF, apparatus C11347-01): 0.88; Absolute fluorescence quantum yield compared with compound 2 ([3]; Tables 2 and 3): higher absolute fluorescence quantum yield than compound 2; Fluorescence Quantum Yield φF ([3]; benzene, apparatus C11347-01): 0.95; Fluorescence Quantum Yield φF [3, 5]: 0.91^b
O=P1(c2ccccc2)C(c2ccc(N(c3ccccc3)c3ccccc3)cc2)=C(c2ccccc2)c2ccccc21 (stereo not shown) [Compound 1, 2-[4-(N,N-diphenylamino)phenyl]-1,3-diphenylbenzo[b]phosphole-P-oxide]	416 nm	1.76 10^4M^−1 cm^−1	404 nm		409 nm	1.77 10^4M^−1 cm^−1	417 nm	1.68 10^4M^−1 cm^−1	416 nm	1.88 10^4M^−1 cm^−1	412 nm	1.82 10^4M^−1 cm^−1	561 nm	597 nm	598 nm	595 nm	508 nm	0.67^a			Absorption Maximum Wavelength λ max ([1]; CHCl3): 418 nm; Molar Absorption Coefficient ϵ ([1]; CHCl3): 1.78 10^4M^−1 cm^−1; Fluorescence in various solvents from low-polarity to high-polarity solvents [2]: strong fluorescence; Emission Maximum Wavelength λ em ([2]; CHCl3): 551 nm; Shift of fluorescence wavelength as the polarity of the solvent increases ([2]; Table 1 solvents): shifted to the longer wavelength; Emission Maximum Wavelength λ em ([2]; benzene): 531 nm; Fluorescence Quantum Yield φF ([3]; CH2Cl2, apparatus C9920-02): 0.84^b; Fluorescence Quantum Yield φF ([3]; CHCl3, apparatus C9920-02): 0.89^b; Fluorescence Quantum Yield φF ([3]; DMF, apparatus C9920-02): 0.71^b; Fluorescence Quantum Yield φF ([3]; benzene, apparatus C9920-02): 0.89^b; Fluorescence Quantum Yield φF [3, 5]: 0.92^a,c

Reference: patent US9951094B2, “Phosphole compound and fluorescent dye containing the same” (NATIONAL UNIVERSITY CORPORATION NAGOYA UNIVERSITY, priority 2014, dated 2018)
